According to patent publication US20150105252A1, “SUBSTITUTED PYRAZOLES AS HERBICIDES” (E I DU PONT DE NEMOURS AND COMPANY, priority 2013, published 2015):

How the values were obtained:
Details in all cases: scale 0 to 100
blackgrass = experiment: Test D postemergence; type: in vivo, Alopecurus myosuroides
Source text: (§1) Seeds of plant species selected from bluegrass (annual bluegrass, Poa annua), blackgrass (Alopecurus myosuroides), canarygrass (littleseed canarygrass, Phalaris minor), chickweed (common chickweed, Stellaria media), galium (catchweed bedstraw, Galium aparine), bromegrass, downy (downy bromegrass, Bromus tectorum), field poppy (Papaver rhoeas), field violet (Viola arvensis), foxtail, green (green foxtail, Setaria viridis), deadnettle (henbit deadnettle, Lamium amplexicaule), ryegrass, Italian (Italian ryegrass, Lolium multiflorum), kochia (Kochia scoparia), lambsquarters (Chenopodium album), oilseed rape (Brassica napus), pigweed (redroot pigweed, Amaranthus retroflexus), chamomile (scentless chamomile, Matricaria inodora), speedwell (bird's-eye speedwell, Veronica persica), barley, spring (spring barley, Hordeum vulgare), wheat, spring (spring wheat, Triticum aestivum), buckwheat, wild (wild buckwheat, Polygonum convolvulus), mustard, wild (wild mustard, Sinapis arvensis), oat, wild (wild oat, Avena fatua), radish, wild (wild radish, Raphanus raphanistrum), windgrass (Apera spica-venti), Russian thistle (Salsola kali), barley, winter (winter barley, Hordeum vulgare), and wheat, winter (winter wheat, Triticum aestivum) were planted into a silt loam soil and treated preemergence with test chemicals formulated in a non-phytotoxic solvent mixture which included a surfactant.
(§2) At the same time, these species were planted in pots containing Redi-Earth® planting medium (Scotts Company, 14111 Scottslawn Road, Marysville, Ohio 43041) comprising spaghnum peat moss, vermiculite, wetting agent and starter nutrients and treated with postemergence applications of the test chemicals formulated in the same manner. Plants ranged in height from 2 to 18 cm (1- to 4-leaf stage). Treated plants and controls were maintained in a controlled growth environment for 14 to 21 days after which time all species were compared to controls and visually evaluated. Plant response ratings, summarized in Table D, are based on a scale of 0 to 100 where 0 is no effect and 100 is complete control. A dash (-) response means no test result.

speedwell = experiment: Test D preemergence; type: in vivo, Veronica persica
Source text: as §1, §2

field violet = experiment: Test D preemergence; type: in vivo, Viola arvensis
Source text: as §1, §2

barley, spring = experiment: Test D postemergence; type: in vivo, Hordeum vulgare
Source text: as §1, §2

barley, winter = experiment: Test D postemergence; type: in vivo, Hordeum vulgare
Source text: as §1, §2

kochia = experiment: Test D postemergence; type: in vivo, Kochia scoparia
Source text: as §1, §2

chamomile = experiment: Test D postemergence; type: in vivo, Matricaria inodora
Source text: as §1, §2

canarygrass = experiment: Test D postemergence; type: in vivo, Phalaris minor
Source text: as §1, §2

Row | Compound | Blackgrass plant response rating (blackgrass; Postemergence, 31 g ai/ha) | Blackgrass plant response rating (blackgrass; Postemergence, 125 g ai/ha) | Blackgrass plant response rating (blackgrass; Postemergence, 250 g ai/ha) | Blackgrass plant response rating (blackgrass; postemergence, 62 g ai/ha) | Plant response rating, Speedwell (speedwell; 62 g ai/ha) | Plant response rating, Speedwell (speedwell; 125 g ai/ha) | Plant response rating, Speedwell (speedwell; 250 g ai/ha) | Plant response rating, Field Violet (field violet; 62 g ai/ha) | Plant response rating, Field Violet (field violet; 125 g ai/ha) | Plant response rating, Field Violet (field violet; 250 g ai/ha) | Barley, Spring plant response rating (barley, spring; Postemergence, 31 g ai/ha) | Barley, Spring plant response rating (barley, spring; Postemergence, 125 g ai/ha) | Barley, Spring plant response rating (barley, spring; Postemergence, 250 g ai/ha) | Barley, Spring plant response rating (barley, spring; postemergence, 62 g ai/ha) | Barley, Winter plant response rating (barley, winter; Postemergence, 31 g ai/ha) | Barley, Winter plant response rating (barley, winter; Postemergence, 125 g ai/ha) | Barley, Winter plant response rating (barley, winter; Postemergence, 250 g ai/ha) | Barley, Winter plant response rating (barley, winter; postemergence, 62 g ai/ha) | Kochia plant response rating (kochia; Postemergence, 31 g ai/ha) | Kochia plant response rating (kochia; Postemergence, 125 g ai/ha) | also measured
1 | CCc1cc(C(=O)NC(C)C)nn1Cc1ccnc(C(F)(F)F)c1 [Compound 103] | 5 | 20 | 35 | 10 | 100 | 100 | 100 | 100 | 100 | 100 | 0 | 10 | 15 | 0 | 0 | 5 | 15 | 5 | 60 | 75 | Plant response rating, Speedwell (speedwell; 31 g ai/ha): 70; Plant response rating, Field Violet (field violet; 31 g ai/ha): 95; Kochia plant response rating (kochia; Postemergence, 250 g ai/ha): 75; Kochia plant response rating (kochia; postemergence, 62 g ai/ha): 65; Chamomile plant response rating (chamomile; Postemergence, 31 g ai/ha): 10; Chamomile plant response rating (chamomile; Postemergence, 125 g ai/ha): 30; Chamomile plant response rating (chamomile; Postemergence, 250 g ai/ha): 60; Chamomile plant response rating (chamomile; postemergence, 62 g ai/ha): 30; Canarygrass plant response rating (canarygrass; Postemergence, 31 g ai/ha): 5; Canarygrass plant response rating (canarygrass; Postemergence, 125 g ai/ha): 10; Canarygrass plant response rating (canarygrass; Postemergence, 250 g ai/ha): 10; Canarygrass plant response rating (canarygrass; postemergence, 62 g ai/ha): 5
2 | CCCc1cc(C(=O)NCC(F)(F)F)nn1Cc1cc(C(F)(F)F)nn1C [Compound 138] | 25 | 40 | 75 | 25 | 100 | 100 | 100 | 100 | 100 | 100 | 15 | 25 | 40 | 15 | 15 | 20 | 40 | 15 | 75 | 80 | Kochia plant response rating (kochia; Postemergence, 250 g ai/ha): 80; Kochia plant response rating (kochia; postemergence, 62 g ai/ha): 75; Chamomile plant response rating (chamomile; Postemergence, 31 g ai/ha): 50; Chamomile plant response rating (chamomile; Postemergence, 125 g ai/ha): 60; Chamomile plant response rating (chamomile; Postemergence, 250 g ai/ha): 65; Chamomile plant response rating (chamomile; postemergence, 62 g ai/ha): 50; Canarygrass plant response rating (canarygrass; Postemergence, 31 g ai/ha): 5; Canarygrass plant response rating (canarygrass; Postemergence, 125 g ai/ha): 25; Canarygrass plant response rating (canarygrass; Postemergence, 250 g ai/ha): 70; Canarygrass plant response rating (canarygrass; postemergence, 62 g ai/ha): 5
3 | CCOc1cc(C(=O)NC2CC2)nn1Cc1ccnc(C(F)(F)F)c1 [Compound 189] | 10 | 15 | 20 | 10 | 100 | 100 | 100 | 100 | 100 | 100 | 10 | 15 | 25 | 10 | 15 | 20 | 20 | 15 | 75 | 80 | Kochia plant response rating (kochia; Postemergence, 250 g ai/ha): 85; Kochia plant response rating (kochia; postemergence, 62 g ai/ha): 75; Chamomile plant response rating (chamomile; Postemergence, 31 g ai/ha): 55; Chamomile plant response rating (chamomile; Postemergence, 125 g ai/ha): 60; Chamomile plant response rating (chamomile; Postemergence, 250 g ai/ha): 65; Chamomile plant response rating (chamomile; postemergence, 62 g ai/ha): 55; Canarygrass plant response rating (canarygrass; Postemergence, 31 g ai/ha): 15; Canarygrass plant response rating (canarygrass; Postemergence, 125 g ai/ha): 20; Canarygrass plant response rating (canarygrass; Postemergence, 250 g ai/ha): 30; Canarygrass plant response rating (canarygrass; postemergence, 62 g ai/ha): 15
